The source made the active and inactive calls. The rule behind the calls is not given here.

The text below walks through data of ChEMBL document CHEMBL4392828, “Structural modification of indomethacin toward selective inhibition of COX-2 with a significant increase in van der Waals contributions” (Bioorg Med Chem, 2019).

This assay has as its target T1, Prostaglandin G/H synthase 1 (Ovis aries) (UniProt P05979).
T1 sequence (whole entry): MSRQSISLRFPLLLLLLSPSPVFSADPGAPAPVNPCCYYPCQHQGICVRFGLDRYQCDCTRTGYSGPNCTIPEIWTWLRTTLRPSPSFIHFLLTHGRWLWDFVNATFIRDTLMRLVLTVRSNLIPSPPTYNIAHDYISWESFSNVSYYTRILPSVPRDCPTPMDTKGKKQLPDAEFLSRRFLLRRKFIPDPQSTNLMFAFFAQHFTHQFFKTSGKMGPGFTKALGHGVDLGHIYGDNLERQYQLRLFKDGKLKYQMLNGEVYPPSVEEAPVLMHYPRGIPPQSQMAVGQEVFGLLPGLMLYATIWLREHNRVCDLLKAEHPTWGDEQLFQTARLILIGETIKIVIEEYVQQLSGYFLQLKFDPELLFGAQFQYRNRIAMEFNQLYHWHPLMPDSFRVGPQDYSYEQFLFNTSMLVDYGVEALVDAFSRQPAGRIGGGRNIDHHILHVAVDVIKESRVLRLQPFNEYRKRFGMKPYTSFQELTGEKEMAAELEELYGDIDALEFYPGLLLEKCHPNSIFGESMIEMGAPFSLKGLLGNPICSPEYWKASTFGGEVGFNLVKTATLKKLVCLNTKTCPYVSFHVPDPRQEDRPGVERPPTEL
Nature of the assay: Inhibition of ovine COX1 assessed as reduction in PGF2alpha production up to 2000 nM using arachidonic acid as substrate incubated for 10 mins by EIA method relative to indomethacin.

For the compound `COc1ccc2c(c1)c(CC(=O)O)c(/C=C/C(F)(F)F)n2C(=O)c1ccc(Cl)cc1`, the inhibition entry is “inactive”.
